Among the data in ChEMBL document CHEMBL1126972, “Synthesis of 2-imidazolidinylidenepropanedinitrile derivatives as stimulators of gastrointestinal motility” (J Med Chem, 1993) are EC30 values, retold here.

Assay [1] deals with Acetylcholinesterase (Homo sapiens) (UniProt P22303). The following applies: Cavia porcellus; Ileum.
For assay [2], the species on record is Cavia porcellus. As to the kind of experiment: In vitro gastrointestinal motility enhancing activity was determined by potentiating action on electrically evoked contraction of the isolated guinea pig ileum; no effect. In kind it is functional.
For assay [3], the species on record is Cavia porcellus. As to the kind of experiment: In vitro gastrointestinal motility enhancing activity was determined by potentiating action on electrically evoked contraction of the isolated guinea pig ileum; the maximum contraction was not achieved to 30%. In kind it is functional.
The species named for assay [4] is Cavia porcellus. Description: In vitro gastrointestinal motility enhancing activity was determined by potentiating action on electrically evoked contraction of the isolated guinea pig ileum;No effect. In kind it is functional.

Active and inactive are the calls of the source. The calls are words filed in the database; no cut-off is given here.

Sequence of Acetylcholinesterase (Homo sapiens) (P22303 whole entry): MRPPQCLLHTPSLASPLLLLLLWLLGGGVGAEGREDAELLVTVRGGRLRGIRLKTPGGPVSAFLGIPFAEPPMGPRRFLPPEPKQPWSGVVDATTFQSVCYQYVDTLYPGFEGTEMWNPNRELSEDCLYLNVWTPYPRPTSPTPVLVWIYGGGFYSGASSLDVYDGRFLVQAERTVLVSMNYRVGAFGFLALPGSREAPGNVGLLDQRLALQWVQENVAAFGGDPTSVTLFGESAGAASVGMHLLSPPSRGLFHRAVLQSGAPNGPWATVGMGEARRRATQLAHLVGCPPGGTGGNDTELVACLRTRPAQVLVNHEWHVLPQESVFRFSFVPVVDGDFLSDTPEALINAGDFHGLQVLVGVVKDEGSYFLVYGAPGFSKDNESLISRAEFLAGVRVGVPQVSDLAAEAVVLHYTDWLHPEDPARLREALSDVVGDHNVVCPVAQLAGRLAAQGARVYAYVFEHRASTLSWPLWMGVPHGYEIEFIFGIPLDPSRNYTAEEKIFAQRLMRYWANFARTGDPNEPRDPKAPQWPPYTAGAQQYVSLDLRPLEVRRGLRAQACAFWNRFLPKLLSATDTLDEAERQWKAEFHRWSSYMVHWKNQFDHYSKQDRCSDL

Broadly, the EC30 is the concentration at which the effect reaches the 30% level. Consider `CN1CCN(Cc2ccc(CNCCN3CCNC3=C(C#N)C#N)o2)CC1`, for which, in assay [1], the EC30 amounted to 1700 nM. Consider `N#CC(C#N)=C1NCCN1CCNCc1ccc(CN2CCCCC2)o1`, for which, in assay [1], the 30% effect level (EC30) was put at 16 nM. Turning to `N#CC(C#N)=C1Nc2ccccc2N1CCNCc1ccc(CN2CCCCC2)o1`, in the assay filed under Cavia porcellus [2], the EC30 entry was “inactive”. Take `CN(C)C(=O)Oc1cccc([N+](C)(C)C)c1`: the EC30 entry in the assay filed under Cavia porcellus [3] was “inactive”. In assay [1], `N#CC(C#N)=C1NCCN1CCNCc1ccc(CN2CCSCC2)o1` displayed an EC30 of 2900 nM.

In turn, `N#CC(C#N)=C1NCCN1CCNCc1ccc(CN2CCC(O)CC2)o1` registered an EC30 in assay [1] of 430 nM.

In assay [1], `N#CC(C#N)=C1NCCN1CCNCc1ccc(CN2CCCCCC2)o1` showed a concentration for an effect of 30% (EC30) of 320 nM. `CN(C)Cc1ccc(CNCCN2CCNC2=C(C#N)C#N)o1` displayed an EC30 in assay [1] of 370 nM. Turning to `CC1CCCC(C)N1Cc1ccc(CNCCN2CCNC2=C(C#N)C#N)o1` (stereo not given), in the assay filed under Cavia porcellus [2], the EC30 entry was “inactive”. `CNC(=C[N+](=O)[O-])NCCSCc1ccc(CN(C)C)o1` registered an EC30 in assay [1] of 1800 nM. The same measure, in the same setting: for `COC1CCCN(Cc2ccc(CNCCN3CCNC3=C(C#N)C#N)o2)C1` (stereo not given) the value was 1400 nM; for `CNC(NCCNCc1ccc(CN2CCCC2)o1)=C(C#N)C#N`, 2000 nM; for `CCN(C)Cc1ccc(CNCCN2CCNC2=C(C#N)C#N)o1`, 540 nM. The same measure, in the same setting: for `CNC(NCCNCc1ccc(CN(C)C)o1)=C(C#N)C#N` the value was 2100 nM; for `CCN(CC)CCNC(=O)c1cc(Cl)c(N)cc1OC`, 430 nM; for `N#CC(C#N)=C1NCCN1CCNCc1ccc(CN2CC=CCC2)o1`, 81 nM.

`CCN(CC)Cc1ccc(CNCCN2CCNC2=C(C#N)C#N)o1`: the 30% effect level in assay [1] (EC30) was put at 1000 nM. Consider `CNC(NCCNCc1ccc(COC)o1)=C(C#N)C#N`, for which the EC30 result in the assay filed under Cavia porcellus [2] is “inactive”. With `CC1CCN(Cc2ccc(CNCCN3CCNC3=C(C#N)C#N)o2)CC1`, the 30% effect level in assay [1] (EC30) was put at 260 nM. Same read-out and setting: for `CNC(NCCNCc1ccc(CN(C(C)C)C(C)C)o1)=C(C#N)C#N` the value was 8500 nM; for `N#CC(C#N)=C1NCCN1CCNCc1ccc(CN2CCCC(O)C2)o1` (stereo not given), 460 nM. Same read-out and setting: as for `C/N=c1\c(O)c(O)\c1=N/CCNCc1ccc(CN2CCCCC2)o1`, the figure is 7200 nM; as for `CC1CCCCN1Cc1ccc(CNCCN2CCNC2=C(C#N)C#N)o1` (stereo not given), 910 nM. Turning to `CC1CCCN(Cc2ccc(CNCCN3CCNC3=C(C#N)C#N)o2)C1` (stereo not given), in assay [1], the 30% effect level (EC30) was put at 410 nM. Same read-out and setting: as for `COC1CCN(Cc2ccc(CNCCN3CCNC3=C(C#N)C#N)o2)CC1`, the figure is 11000 nM.

Take `COc1cc(N)c(Cl)cc1C(=O)NCCNCc1ccc(CN(C)C)o1`: the EC30 result in the assay filed under Cavia porcellus [4] is “No effect”. `N#CC(C#N)=C1NCCN1CCNCc1ccc(CN2CCCC2)o1` registered a concentration for an effect of 30% (EC30) in assay [1] of 310 nM. As for `CNC(NCCNCc1ccc(CN2CCCCC2)o1)=C(C#N)C#N`, in assay [1], the EC30 came to 4100 nM. Same read-out and setting: for `N#CC(C#N)=C1NCCN1CCNCc1ccc(CN2CCOCC2)o1` the value was 13000 nM. For `CN(C)Cc1ccc(CNCCN2CCN/C2=C\[N+](=O)[O-])o1`, the EC30 result in the assay filed under Cavia porcellus [2] was “inactive”.
